# Measured values taken from paper PMC7727793, “Aggregation Behavior, Antibacterial Activity and Biocompatibility of Catanionic Assemblies Based on Amino Acid-Derived Surfactants” (International Journal of Molecular Sciences, 2020).
# Legend:
# [1] = Surface tension, hanging drop tensiometer; assay type: physicochemical; settings: 25 °C; for Surface tension (γ) at CMC: estimated error 1 mNm^−1; for CMC obtained by surface tension (CMCγ): estimated error 10%; for Area per molecule (Am): Gibbs adsorption isotherm using n = 1, estimated error 15%
# Experimental: Surface tension was measured at 25 °C using a homemade hanging drop tensiometer. Samples were hanged from a straight-cut Teflon tube and the size and shape were obtained from pictures as a function of time. Surface tension was obtained from fitting the drop profile to the appropriate Young-Laplace equations. See Sorrenti et al. for more details. From a concentrated clear solution, successive dilutions were made to cover the adequate range of surface tension changes. The surface tension of […]14 was measured in three pH conditions: (a) unbuffered, using water as solvent, (b) buffered at pH = 2, using 10 mM HCl solution to prepare the concentrated sample and their dilutions and (c) buffered at pH = 12, using 10 mM […] to prepare the concentrated solution and their dilutions.
# [2] = system: 3T3 cell line; test: MTT cell viability assay; assay type: cell-based, murine; settings: 3T3, MTT, 24 h
# Experimental: (§1) The murine Swiss albino fibroblast (3T3), the squamous carcinoma (A431), the immortal human keratinocyte (HaCaT) and the human epithelial carcinoma (HeLa) cell lines were obtained from Celltec UB. Cells were grown in Dulbecco’s Modified Eagle’s Medium (DMEM) (4.5 g/L glucose) supplemented with 10% (v/v) fetal bovine serum (FBS), 1% (v/v) L-glutamine solution (200 mM) and 1% (v/v) penicillin-streptomycin solution (10,000 U/mL penicillin and 10 mg/mL streptomycin) at 37 °C and 5% CO2 (CO2 Incubator Nuaire, Plymouth, MN, USA). All the biological materials were purchased from Lonza (Verviers, Belgium). Cells were cultured in 75 cm^2 culture flasks (TPP, Trasadingen, Switzerland) and were routinely split using trypsin-EDTA (ethylenediaminetetraacetate) solution (170,000 U/L trypsin and 0.2 g/L EDTA) (Lonza, Verviers, Belgium) when cells are approximately 80% confluent. […]
# (§2) In this assay, living cells reduce the yellow tetrazolium salt, 2,5-Diphenyl-3, -(4,5-dimethyl-2-thiazolyl) tetrazolium bromide (MTT), to insoluble purple formazan crystals. […] Then, the absorbance of the resulting solutions was measured at 550 nm using a Bio-Rad 550 microplate reader (Hercules, California, USA). The effect of each treatment was calculated as the percentage of tetrazolium salt reduction by viable cells against the untreated cell control (cells with medium only).
# [3] = system: HaCaT cell line; test: MTT cell viability assay; assay type: cell-based, human; settings: 24 h
# Experimental: (§3) The murine Swiss albino fibroblast (3T3), the squamous carcinoma (A431), the immortal human keratinocyte (HaCaT) and the human epithelial carcinoma (HeLa) cell lines were obtained from Celltec UB. Cells were grown in Dulbecco’s Modified Eagle’s Medium (DMEM) (4.5 g/L glucose) supplemented with 10% (v/v) fetal bovine serum (FBS), 1% (v/v) L-glutamine solution (200 mM) and 1% (v/v) penicillin-streptomycin solution (10,000 U/mL penicillin and 10 mg/mL streptomycin) at 37 °C and 5% CO2 (CO2 Incubator Nuaire, Plymouth, MN, USA). All the biological materials were purchased from Lonza (Verviers, Belgium). Cells were cultured in 75 cm^2 culture flasks (TPP, Trasadingen, Switzerland) and were routinely split using trypsin-EDTA (ethylenediaminetetraacetate) solution (170,000 U/L trypsin and 0.2 g/L EDTA) (Lonza, Verviers, Belgium) when cells are approximately 80% confluent.
# (§4) 3T3 and HaCaT cells (1 × 10^5 cells/ mL) and HeLa and A431 cells (5 × 10^4 cells/mL) were grown at the defined densities into the central 60 wells of a 96-well plate. Cells were incubated for 24 h under 5% CO2 at 37 °C. Then, the spent medium was removed, and cells were incubated during 24 h with the corresponding surfactant systems, previously diluted 50% (v/v) in DMEM medium supplemented with 5% FBS (100 µL).
# (§5) In this assay, living cells reduce the yellow tetrazolium salt, 2,5-Diphenyl-3, -(4,5-dimethyl-2-thiazolyl) tetrazolium bromide (MTT), to insoluble purple formazan crystals. After the cells were incubated for 24 h with the corresponding systems, the medium was removed and 100 µL (5 mg/mL) of 2,5-Diphenyl-3,-(4,5-dimethyl-2-thiazolyl) tetrazolium bromide (MTT) (Sigma–Aldrich, St. Louis, MO, USA) in phosphate-buffered saline (PBS) (Lonza, Verviers, Belgium), diluted 1:10 in culture medium without phenol red and absence of FBS (Lonza, Verviers, Belgium), was added to the cells. The plates were incubated for 3 h, after which the medium was removed. Thereafter, 100 µL of dimethylsulfoxide (DMSO) (Sigma–Aldrich, St. Louis, MO, USA) was added to each well to dissolve the purple formazan crystals. Plates were then placed in a microtiter-plate shaker for 5 min at room temperature to help the total dissolution. Then, the absorbance of the resulting solutions was measured at 550 nm using a Bio-Rad 550 microplate reader (Hercules, California, USA). The effect of each treatment was calculated as the percentage of tetrazolium salt reduction by viable cells against the untreated cell control (cells with medium only).
# [4] = system: HeLa cell line; test: MTT cell viability assay; assay type: cell-based, human; settings: 24 h
# Experimental: as §3, §4, §5
# [5] = system: A431 cell line; test: MTT cell viability assay; assay type: cell-based
# Experimental: as §1, §2
# [6] = system: 3T3 cell line; test: NRU cell viability assay; assay type: cell-based, murine; settings: 3T3, NRU, 24 h
# Experimental: (§6) The murine Swiss albino fibroblast (3T3), the squamous carcinoma (A431), the immortal human keratinocyte (HaCaT) and the human epithelial carcinoma (HeLa) cell lines were obtained from Celltec UB. Cells were grown in Dulbecco’s Modified Eagle’s Medium (DMEM) (4.5 g/L glucose) supplemented with 10% (v/v) fetal bovine serum (FBS), 1% (v/v) L-glutamine solution (200 mM) and 1% (v/v) penicillin-streptomycin solution (10,000 U/mL penicillin and 10 mg/mL streptomycin) at 37 °C and 5% CO2 (CO2 Incubator Nuaire, Plymouth, MN, USA). All the biological materials were purchased from Lonza (Verviers, Belgium). Cells were cultured in 75 cm^2 culture flasks (TPP, Trasadingen, Switzerland) and were routinely split using trypsin-EDTA (ethylenediaminetetraacetate) solution (170,000 U/L trypsin and 0.2 g/L EDTA) (Lonza, Verviers, Belgium) when cells are approximately 80% confluent. 3T3 and HaCaT cells (1 × 10^5 cells/ mL) and HeLa and A431 cells (5 × 10^4 cells/mL) were grown at the defined densities into the central 60 wells of a 96-well plate. Cells were incubated for 24 h under 5% CO2 at 37 °C. […] Agitation, determination of the absorbance of the extracted solution and effect of each treatment in comparison with control cells were analogous of those described in the case of the MTT method.
# [7] = system: HaCaT cell line; test: NRU cell viability assay; assay type: cell-based, human; settings: 24 h
# Experimental: as §6
Compound,Surface tension (γ) at CMC [1] [mNm^−1],CMC obtained by surface tension (CMCγ) [1],Area per molecule (Am) [1] [nm^2],"IC50 ([2]; Mus musculus, NIH3T3) [µM]",IC50 ([3]; Homo sapiens) [µM],IC50 ([4]; Homo sapiens) [µM],"IC50 ([5]; Homo sapiens, A-431, 24 h) [µM]","IC50 ([6]; Mus musculus, NIH3T3) [µM]",IC50 ([7]; Homo sapiens) [µM],IC50 [2] [µM],IC50 [3] [µM],IC50 [4] [µM],IC50 ([5]; 24 h) [µM],IC50 [6] [µM],IC50 [7] [µM]
"CCCCCCCCCCCCCC(=O)O [Sodium myristate, sodium myristate]",24,5.0 ^7 mM,1.0,> 50,> 50,> 50,> 50,> 50,> 50,,,,,,
"N(π),N(τ)-bis(methyl)-L-Histidine tetradecyl amide [DMHNHC14]",33,5.2 mM,0.57,,,,,,,17.1,25.5,3.37,22.6,26.1,45.7
